The results in this text go back to patent US12428428B2, “Tricyclic tetrahydroisoquinoline derivative, preparation method therefor and application thereof in medicine” (JIANGSU HENGRUI MEDICINE CO., LTD., priority 2020, dated 2025).

The target in test [1] is T1, CYP3A4 (Homo sapiens (Human), UniProt P08684). In words: Inhibition of site of metabolism of midazolam in human liver microsome CYP3A4. Type of test: in vitro ADME. As to conditions: midazolam substrate. As for the experimental part:
• 1. Phosphate buffer (20×PBS, purchased from Sangon); • 2. NADPH (ACROS, A2646-71-1); • 3. Human liver microsome (Corning Gentest, Cat No, 452161, Lot No. 9050002, Donor, 36); • 4. ABI QTrap 4000 LC-MS System (AB Sciex); • 5. ZORBAX Extend-C18, 3×50 mm, 3.5 μm (Agilent, USA); • 6. CYP probe substrate (midazolam, TRC, M343000/3 μM) and positive control inhibitor (ketoconazole, SIGMA, Cat No. K1003-100MG).
A 100 mM PBS buffer was prepared. A 0.25 mg/mL microsome solution, a 7.5 mM MgCl2 and a 5 mM NADPH solution were prepared using the buffer. A 30 mM stock solution was diluted with DMSO to obtain 30 mM, 10 mM, 3 mM, 1 mM, 0.3 mM, 0.03 mM, 0.003 mM and 0 mM serial solutions I, which were further diluted 200-fold with phosphate buffer (PBS) to obtain serial test solutions II (150, 50, 15, 5, 1.5, 0.15, 0.015 and 0 μM). A midazolam working solution was diluted with PBS to 15 μM.
(§1) 40 μL of a 0.25 mg/mL microsome solution prepared in 7.5 mM MgCl2 and 20 μL of each of the 15 μM midazolam working solution and the compound working solutions (150, 50, 15, 5, 1.5, 0.15, 0.015 and 0 μM) were measured out and well mixed. Ketoconazole at the same concentration was used in place of the compounds as a positive control group. The mixtures were pre-incubated with 5 mM NADPH solution at 37° C. for 5 min at the same time. After 5 minutes, 20 μL of NADPH was added to each well to start reactions. The mixtures were incubated for 30 min. Duplicate samples were set for all of the incubated samples. After 30 minutes, 250 μL of internal standard-containing acetonitrile was added to all the samples. The mixtures were well mixed, shaken at 800 rpm for 10 min, and then centrifuged at 3700 rpm for 10 min. 100 μL of the supernatant and 80 μL of ultrapure water were well mixed and subjected to LC-MS/MS analysis.
The IC50 values of the drugs for the site of metabolism of midazolam in CYP3A4 were calculated using Graphpad Prism and are shown in Table 5.

Test [2] concerns the target T1, CYP3A4. In words: Inhibition of site of metabolism of testosterone in human liver microsome CYP3A4. To be noted: testosterone substrate. In kind it is in vitro ADME. The procedure: • 1. Phosphate buffer (20×PBS, purchased from Sangon); • 2. NADPH (ACROS, A2646-71-1); • 3. Human liver microsome (Corning Gentest, Cat No, 452161, Lot No. 905002, Donor36); • 4. ABI QTrap 4000 LC-MS System (AB Sciex); • 5. ZORBAX Extend-C18, 3×50 mm, 3.5 μm (Agilent, USA); • 6. CYP probe substrate (testosterone, Vocko, CAS No. [58-22-0]/75 μM) and positive control inhibitor (ketoconazole, SIGMA, Cat No. K1003-100MG).
A 100 mM PBS buffer was prepared. […]. A 0.25 mg/mL microsome solution, a 7.5 mM MgCl2 and a 5 mM NADPH solution were prepared using the buffer. A 30 mM stock solution was diluted with DMSO to obtain 30 mM, 10 mM, 3 mM, 1 mM, 0.3 mM, 0.03 mM, 0.003 mM and 0 mM serial solutions I, which were further diluted 200-fold with phosphate buffer (PBS) to obtain serial test solutions II (150, 50, 15, 5, 1.5, 0.15, 0.015 and 0 μM). A testosterone working solution was diluted with PBS to […].
as §1, with “the 375” for “the 15”, “μM testosterone” for “μM midazolam”, “min.” for “min. Duplicate samples were set for all of the incubated samples.”
The IC50 values of the drugs for the site of metabolism of testosterone in CYP3A4 were calculated using Graphpad Prism and are shown in Table 6.
On the technique in general: Microsomes from liver hold many membrane-bound enzymes, among them those of drug oxidation.

In the next test the target is hERG potassium channels (Homo sapiens (Human), UniProt Q12809). In words: Blocking of hERG potassium currents (automated patch clamp, HEK293-hERG). Type of test: cell-based. As to conditions: HEK293-hERG stable cell strain. The procedure:
The blocking of hERG potassium currents by the compounds disclosed herein was tested in a stable cell strain transfected with hERG potassium channels using automated patch clamp.
An HEK293-hERG stable cell strain was subcultured in an MEM/EBSS medium (10% FBS, 400 μg/mL G418, 1% MEM non-essential amino acid solution (100×), 1% sodium pyruvate solution) at a density of 1:4, and an automated patch clamp experiment was conducted between hour 48 and hour 72 after the start of the culture. On the day of the experiment, the cells were digested with 0.25% trypsin, then centrifuged, collected, and resuspended in an extracellular fluid (140 mM NaCl, 4 mM KCl, 1 mM MgCl2, 2 mM CaCl2), 5 mM D-glucose monohydrate, 10 mM Hepes, pH 7.4, 298 mOsm) to form a cell suspension. The cell suspension was placed on the cell bank of the Patchliner instrument, which then applied the cells to a chip (NPC-16) by means of a negative pressure controller. The negative pressure drew individual cells to the wells of the chip. […] Data were recorded and analyzed using the HEAK Patchmaster, HEAK EPC10 patch clamp amplifier (Nanion), Pathliner software and Pathcontrol HT software, and the currents of the compounds at each concentration and the current of the blank control were analyzed.
In general terms: hERG is a cardiac potassium channel; its block is linked to QT prolongation.

T1 sequence (P08684 whole entry): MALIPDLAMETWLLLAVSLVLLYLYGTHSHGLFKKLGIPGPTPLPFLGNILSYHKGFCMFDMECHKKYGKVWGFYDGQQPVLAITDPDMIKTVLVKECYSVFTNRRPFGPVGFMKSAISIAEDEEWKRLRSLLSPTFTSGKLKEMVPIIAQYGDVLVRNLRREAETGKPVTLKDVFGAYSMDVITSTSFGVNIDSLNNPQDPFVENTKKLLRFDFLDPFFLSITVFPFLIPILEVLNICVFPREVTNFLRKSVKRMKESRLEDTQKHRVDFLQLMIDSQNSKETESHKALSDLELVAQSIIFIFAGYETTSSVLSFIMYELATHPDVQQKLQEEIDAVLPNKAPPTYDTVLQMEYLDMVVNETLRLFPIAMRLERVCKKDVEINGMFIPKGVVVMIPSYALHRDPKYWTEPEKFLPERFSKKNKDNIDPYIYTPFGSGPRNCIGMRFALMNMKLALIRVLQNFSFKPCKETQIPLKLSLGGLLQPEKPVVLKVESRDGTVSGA
Chain of hERG potassium channels (Q12809 whole entry): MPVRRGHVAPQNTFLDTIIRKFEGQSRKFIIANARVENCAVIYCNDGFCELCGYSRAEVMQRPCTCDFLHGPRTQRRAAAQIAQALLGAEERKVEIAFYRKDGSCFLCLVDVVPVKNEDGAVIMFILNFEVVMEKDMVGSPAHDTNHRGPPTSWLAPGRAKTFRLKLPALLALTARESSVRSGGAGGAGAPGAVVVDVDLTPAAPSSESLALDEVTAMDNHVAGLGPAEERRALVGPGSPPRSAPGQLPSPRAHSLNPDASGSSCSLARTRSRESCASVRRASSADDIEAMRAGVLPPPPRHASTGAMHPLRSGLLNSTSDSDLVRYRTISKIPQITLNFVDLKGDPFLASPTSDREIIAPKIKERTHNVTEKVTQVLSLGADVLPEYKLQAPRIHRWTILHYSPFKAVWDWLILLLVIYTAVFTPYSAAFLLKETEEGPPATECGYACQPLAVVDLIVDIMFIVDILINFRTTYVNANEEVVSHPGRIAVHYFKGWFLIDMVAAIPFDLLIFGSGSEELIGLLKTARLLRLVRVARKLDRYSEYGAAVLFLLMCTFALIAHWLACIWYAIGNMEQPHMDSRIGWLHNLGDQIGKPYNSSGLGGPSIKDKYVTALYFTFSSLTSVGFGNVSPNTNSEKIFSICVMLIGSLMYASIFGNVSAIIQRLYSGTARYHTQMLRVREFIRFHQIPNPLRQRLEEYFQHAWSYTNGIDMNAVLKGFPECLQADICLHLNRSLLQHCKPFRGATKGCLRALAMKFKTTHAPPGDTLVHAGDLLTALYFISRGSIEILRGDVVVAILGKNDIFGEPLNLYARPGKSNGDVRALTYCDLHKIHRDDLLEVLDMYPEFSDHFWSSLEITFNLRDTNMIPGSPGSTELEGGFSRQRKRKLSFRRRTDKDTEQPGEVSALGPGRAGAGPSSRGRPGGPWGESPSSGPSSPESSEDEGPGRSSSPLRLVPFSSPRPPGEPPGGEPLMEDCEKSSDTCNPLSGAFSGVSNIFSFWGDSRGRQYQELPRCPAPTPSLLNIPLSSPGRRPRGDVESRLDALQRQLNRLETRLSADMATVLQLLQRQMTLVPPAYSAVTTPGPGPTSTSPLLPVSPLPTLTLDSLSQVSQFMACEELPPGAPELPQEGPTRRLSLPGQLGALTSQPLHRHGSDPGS

For `C[C@@H]1Cc2cc3c(cc2[C@@H](c2c(F)cc(N[C@H]4CCN(CCCF)C4)cc2F)N1CC(F)(F)F)OCO3` [Example 2, (S)—N-(3,5-difluoro-4-((5S,7R)-7-methyl-6-(2,2,2-trifluoroethyl)-5,6,7,8-tetrahydro-[1,3]dioxolo[4,5-g]isoquinolin-5-yl)phenyl)-1-(3-fluoropropyl)pyrrolidin-3-amine], the concentration for half-maximal inhibition (IC50) against CYP3A4 [1] and against CYP3A4 [2] was above 30 µM in each case. Regarding `[2H]C1([2H])Oc2cc3c(cc2O1)[C@@H](c1ccc(N[C@H]2CCN(CCCF)C2)cn1)N(CC(F)(F)CO)[C@H](C)C3` [Example 12, 2,2-Difluoro-3-((5S,7R)-5-(5-(((S)-1-(3-fluoropropyl)pyrrolidin-3-yl)amino)pyridin-2-yl)-7-methyl-7,8-dihydro-[1,3]dioxolo[4,5-g]isoquinolin-6(5H)-yl-2,2-d2)propan-1-ol], the 50% inhibitory concentration (IC50) was 8.18 µM against CYP3A4 [1], 23.8 µM against CYP3A4 [2] and above 30 µM against hERG potassium channels. As to `C[C@@H]1Cc2cc3c(cc2[C@@H](c2ccc(N[C@H]4CCN(CCCF)C4)cn2)N1CC(F)(F)CO)OCO3` [Example 4, 2,2-Difluoro-3-((5S,7R)-5-(5-(((S)-1-(3-fluoropropyl)pyrrolidin-3-yl)amino)pyridin-2-yl)-7-methyl-7,8-dihydro-[1,3]dioxolo[4,5-g]isoquinolin-6(5H)-yl)propan-1-ol], the IC50 on CYP3A4 [2] turned out to be 15.5 µM. For the compound `C[C@@H]1Cc2cc3c(cc2[C@@H](c2ccc(N[C@H]4CCN(CCCF)C4)cc2)N1CC(F)(F)F)OCO3` [Example 1, (S)-1-(3-fluoropropyl)-N-(4-((5R,7R)-7-methyl-6-(2,2,2-trifluoroethyl)-5,6,7,8-tetrahydro-[1,3]dioxolo[4,5-g]isoquinolin-5-yl)phenyl)pyrrolidin-3-amine], the values for the 50% inhibitory concentration (IC50) at CYP3A4 [1] and against CYP3A4 [2] were 15.8 µM and 7.31 µM, respectively. The matching figures for `C[C@@H]1Cc2cc3c(cc2[C@@H](c2ccc(N[C@H]4CCN(CCCF)C4)cc2)N1CC(F)(F)CO)OCO3` [Example 3, 2,2-Difluoro-3-((5R,7R)-5-(4-(((S)-1-(3-fluoropropyl)pyrrolidin-3-yl)amino)phenyl)-7-methyl-7,8-dihydro-[1,3]dioxolo[4,5-g]isoquinolin-6(5H)-yl)propan-1-ol]: 10 µM and 14.6 µM.

With `C[C@@H]1Cc2cc3c(cc2[C@@H](c2ncc(N[C@H]4CCN(CCCF)C4)cc2F)N1CC(F)(F)CO)OCO3` [Example 11, 2,2-Difluoro-3-((5S,7R)-5-(3-fluoro-5-(((S)-1-(3-fluoropropyl)pyrrolidin-3-yl)amino)pyridin-2-yl)-7-methyl-7,8-dihydro-[1,3]dioxolo[4,5-g]isoquinolin-6(5H)-yl)propan-1-ol], the concentration for half-maximal inhibition (IC50) against hERG potassium channels is above 30 µM.

Usually IC50 stands for the concentration at which inhibition is half-maximal. A lower IC50 goes with inhibition by little substance.
